In patent publication US8557380B2, “Form of hydroquinone and production thereof” (Rhodia Operations, priority 2006, dated 2013):
Read-outs that look alike come from different tables or passages of the source.

Columns and labels:
[1] = particles with dimensions of less than 100 μm
Excerpt: The level of the fine particles is defined as the percentage by weight of the particles with dimensions of less than 100 μm.
Particles which pass through a sieve having a mesh size of 100 μm are regarded according to the invention as fine particles.

[2] = undried product
Method: The densities are measured on an undried product according to the test described in the European Phatmacopeia standard [Volume 1, p. 256 (2004), 5th edition], with the only difference that the 250 ml of test specimen is replaced by a 1 liter test specimen.

[3] = stirred, final concentration 4.8% by weight
Method: These measurements correspond to a test which consists in measuring the time necessary to dissolve said amount in water maintained at ambient temperature (20° C.) and kept stirred, for example using a propeller stirrer with 4 inclined blades.

[4] = final concentration 2% by weight
Method: A similar test is carried out in order to determine the rate of dissolution of the flakes in acrylic acid.
The test consists in defining the time necessary to dissolve the amount of flakes necessary in order to obtain a final concentration of hydroquinone in the acrylic acid of 2% by weight.

[5] = sieve mesh size 2.5 mm
Excerpt: In order to define the particle size of the product of the invention, the percentage by weight of the particles with dimensions of less than 2.5 mm, that is to say particles which pass through a sieve having a mesh size of 2.5 mm, is also defined.

| Structure (SMILES) | % by weight of particles passing through a sieve with a mesh size of 100 μm (level of fine particles) [1] | Loose bulk density [2] | Tapped bulk density [2] | Dissolution time in water at 20° C. (production of a 4.8% by weight solution) [3] | Dissolution time in acrylic acid at 20° C. (production of a 2.0% by weight solution) [4] | % by weight of particles passing through a sieve with a mesh size of 100 μm (level of fine particles) ([1]; listed as hydroquinone in the powder form) | percentage by weight of the particles with dimensions of less than 2.5 mm [5] |
| --- | --- | --- | --- | --- | --- | --- | --- |
| Oc1ccc(O)cc1 [Example 1, hydroquinone] | 0.8% by weight | 0.52 g/mL | 0.70 g/mL | 21 min | 45 min | – | – |
| Oc1ccc(O)cc1 [Example 2, hydroquinone] | 0.7% by weight | 0.47 g/mL | 0.65 g/mL | 15 min | 30 min | – | – |
| Oc1ccc(O)cc1 [Example 3, hydroquinone] | 0.9% by weight | 0.48 g/mL | 0.67 g/mL | 18 min | 35 min | – | – |
| Oc1ccc(O)cc1 [Example 4, hydroquinone] | 0.8% by weight | 0.46 g/mL | 0.61 g/mL | 14 min | 30 min | – | – |
| Oc1ccc(O)cc1 [Example 5, hydroquinone] | 0.9% by weight | 0.53 g/mL | 0.66 g/mL | 14 min | 30 min | – | – |
| Oc1ccc(O)cc1 [hydroquinone powder, hydroquinone] | – | – | – | 9 min | 20 min | ~20 % by weight | 100 % by weight |
